Like-named read-outs stand apart in the source and are kept apart here.
Assays:
[1] = test system: human HCC cell line PLC/PRC/5 and human HCC cell line Huh7; assay: Cell apoptosis/necrosis, Annexin V and PI flow cytometry (FIG. 5A); format: cell-based; settings: for cell death: PLC/PRC/5 and Huh7, 200 μg/ml
Protocol: (§1) Analysis of Cell Apoptosis/Necrosis: Cells were plated into 24-well plates with the density of 1×10^5 cells/well, and cultured for 48 hours before treatments. The 5 bp polyA:polyU and its analogue, control Poly(A:U) and Poly(I:C) were added at the final concentration of 200 μg/ml into the cell culture supernatants. Cells without treatment were the negative control and the cells treated with 1 μg/ml Lipopolysaccharide (LPS) were the positive control. After incubation for specified time, the cells were harvested and washed with ice-cold PBS, resuspended in 100 μl AnnexinV binding buffer at a concentration of 1×10^5 cells/100 μl and incubated with 2 μl AnnexinV-FITC for 15 minutes at room temperature in the dark. Samples were washed with binding buffer and resuspended again in 100 μl same buffer. After adding 5 μl Propidium Iodide (PI), the samples were diluted with binding buffer and analyzed by flow cytometry (BD Biosciences). Apoptotic cells were identified as an AnnexinV-FITC-positive/PI-negative population.
(§2) Experiments carried out in vitro compare low molecular weight dsRNAs (<15 bps) with high molecular weight dsRNAs (>70 bps). Data generated with dsRNA of similar size and chemical composition obtained by fractionation, indicate that low molecular weight dsRNAs (<15 bps) have substantial TNFalpha and cell death inducing properties in human monocytic THP-1 cells. […] The pro-inflammatory effect of low molecular weight dsrnas is evaluated by measuring cytokine production using elisa (r&d systems) in FIG. 3a as well as in FIG. 3b. cell proliferation, death, and apoptosis are measured by Ethidium bromide (EB), PI and YoPro staining (in FIG. 1), Fluorescence-Activated Cell Sorting (FACS) analysis and mtt assay, Annexin V and PI staining analyzed by flow cytometry (in FIGS. 3A, 3B, 4A, 4B, 4C, 5A and 5B).

[2] = test system: human HCC cell line HepG2 and THP-1 cells; assay: Cell apoptosis/necrosis, Annexin V and PI flow cytometry (FIG. 5B); format: cell-based; settings: for cell death: HepG2 and THP-1, 200 μg/ml
Protocol: as §1, §2

[3] = test system: THP-1, PLC/PRC/5, Huh7 and HepG2 cells; assay: Cytotoxicity, cell death and apoptosis of higher molecular weight dsRNA and controls (FIGS. 3A, 3B, 5A and 5B); format: cell-based
Protocol: (§3) Analysis of Cytotoxicity and Anti-Proliferative Effect on Cells: Cytotoxicity was measured by MTT assay. Cells were seeded with the density of 5×10^3 cells/well in 96-well plate and incubated for 48 hours in a cell culture incubator, before being treated with compounds. Each compound was dissolved in RNase and DNase free PBS, and diluted to certain concentrations by the same PBS before being added into the cell culture supernatant. The final concentrations of 5 bps pA:pU were 50, 100, 150 and 200 μg/ml, and the gradient of 5 bps pA:pU s analogue was 50, 100, 300, 500 μg/ml. Poly(A:U) and Poly(I:C) were added at the final concentration of 200 μg/ml as controls. Cells without any treatment were the negative control. After incubation for specified times in the cell culture incubator, MTT reagent was added to the cells for the assay as described above.
Analysis of Cell Apoptosis/Necrosis: Cells were plated into 24-well plates with the density of 1×10^5 cells/well, and cultured for 48 hours before treatments. The 5 bp polyA:polyU and its analogue, control Poly(A:U) and Poly(I:C) were added at the final concentration of 200 μg/ml into the cell culture supernatants. Cells without treatment were the negative control and the cells treated with 1 μg/ml Lipopolysaccharide (LPS) were the positive control. […] After adding 5 μl Propidium Iodide (PI), the samples were diluted with binding buffer and analyzed by flow cytometry (BD Biosciences). […]
as §2, with “bps).” for “bps). Data generated with dsRNA of similar size and chemical composition obtained by fractionation, indicate that low molecular weight dsRNAs (<15 bps) have substantial TNFalpha and cell death inducing properties in human monocytic THP-1 cells.”

[4] = test system: PLC/PRC/5 and THP-1 cells; assay: TNFalpha and IL-6 induction by higher molecular weight dsRNA and controls (FIGS. 3A, 3B); format: cell-based, human
Protocol: (§4) Analysis of Cytokines Release: Cells were plated into 96-well plate with the density of 2×10^4 cells/well, cultured and were allowed to become subconfluent. After changing to fresh medium, the cells were treated with 5 bp pA:pU with analogues of 5 bp pA:pU, 70 bp pA:pU, analogues 70 bp pA:pU, or control Poly(A:U) and Poly(I:C) at the final concentration of 100 μg/ml. Cells without treatment were the negative control and cells treated with 1 μg/ml LPS were the positive control. After incubation, the supernatants were collected, centrifuged and then put at −80° C. immediately. Select cytokines, such as IL-6, IL-12(p70), IFN-α2, Tumor Necrosis Factor-α (TNF-α), TNF-related apoptosis-inducing ligand (TRAIL), were analyzed by Bio-Plex Assay kits.
as §2, with “bps).” for “bps). Data generated with dsRNA of similar size and chemical composition obtained by fractionation, indicate that low molecular weight dsRNAs (<15 bps) have substantial TNFalpha and cell death inducing properties in human monocytic THP-1 cells.”

THP-1 cells [5] = assay: Cytokine production in THP-1 cells (ELISA / Bio-Plex); format: cell-based, human
Protocol: as §4, §2

[6] = test system: human HCC cell line PLC/PRC/5; assay: Cytokine production in HCC cell line PLC/PRC/5; format: cell-based; settings: for TNFalpha induction: PLC/PRC/5 cancer cells
Protocol: as §4, §2

[7] = test system: human HCC lines Huh7, PLC/PRF/5, HepG2, primary liver cancer cells P7NSG59410 and P31NSG55368; assay: MTT cytotoxicity and anti-proliferative effect on human liver cancer cells (FIGS. 4A, 4B); format: cell-based
Protocol: Analysis of Growth Curve: Cell lines were seeded at different initial densities in the 96-well plate for 7 days. The medium was changed every day. The viability and metabolic rate of cultured cells was determined daily by assaying the reduction of 3-(4,5-dimethyl thiazol-2-yl)-2,5-diphenyl tetrazolium bromide (MTT) to formazan. After incubation period, MTT was added into each well in final concentration of 0.5 mg/ml, and incubated at the same condition for 4 h. Then the formazan was collected and dissolved in 120 ul DMSO. The absorption was measured at 560-562 nm in an ELISA reader with 620 nm as reference wave.
as §3
as §2, with “bps).” for “bps). Data generated with dsRNA of similar size and chemical composition obtained by fractionation, indicate that low molecular weight dsRNAs (<15 bps) have substantial TNFalpha and cell death inducing properties in human monocytic THP-1 cells.”

[8] = test system: mouse liver cancerous cell line BNL 1ME A.7R.1; assay: MTT cytotoxicity on mouse liver cancerous cell line (FIG. 4B); format: cell-based; settings: dose-effect
Protocol: as §3

THP-1 cells [9] = assay: MTT cytotoxicity on THP-1 cells (FIG. 4C); format: cell-based, human; settings: THP-1, dose-effect
Protocol: as §3, with “After incubation for specified times in the cell culture incubator, MTT reagent was added to the cells for the assay as described above.” left out
as §2, with “bps).” for “bps). Data generated with dsRNA of similar size and chemical composition obtained by fractionation, indicate that low molecular weight dsRNAs (<15 bps) have substantial TNFalpha and cell death inducing properties in human monocytic THP-1 cells.”

THLE2 cells = assay: MTT cytotoxicity on THLE2 cells emulating normal human liver cells (FIG. 4C); format: cell-based
Protocol: as §3

[10] = test system: human primary fibroblasts; assay: MTT cytotoxicity on human primary fibroblasts (FIG. 4C); format: cell-based
Protocol: as §3

[11] = test system: cell line emulating normal hepatocytes; assay: TNF-alpha production in a cell line emulating normal hepatocytes; format: cell-based, human
Protocol: as §4

[12] = test system: human liver cancer cell lines Huh7 and HepG2; assay: MTT assay of Lipofectamine formulated vs unformulated pA:pU (FIG. 6); format: cell-based; settings: Huh7 and HepG2, 24 hour treatment
Protocol: In one embodiment, 5 bp dsRNAs are formulated using Lipofectamine 2000 to form lipid-based nanoparticles. One exemplary method follows the steps of: 1) in a microfuge tube 1.5 ul of Lipofectamine was diluted to a final volume of 23.5 ul using the appropriate media (per cell type); 2) 25 ul of the appropriate 5 bp dsRNAs analog dilution (to achieve the desired final per well concentration) was added to the diluted Lipofectamine and the mixture was incubated at Room Temperature (RT) for 5 minutes to form lipo-complexes; 3) 250 ul of the appropriate media was added to achieve a final volume of 300 ul; 4) 100 ul of the mixture from step 3 was added to each replicate and the cells was incubated for 24 hours.
Huh7 and HepG2 Cells were plated in a 96 well plate at a density of 2500 cells per well. Cells were incubated for 24 hours. After 24 hours of incubation, the medium was removed and cells were treated with various formulations of 5 bp pA:pU in triplicate in their respective culture mediums with […] 10% FBS. Untreated cells and Dox (10 uM) were used as controls. Cells were incubated for an additional 24 hours. After the 24 hour drug treatment, the medium was removed. Fresh culture medium will be added and the MTT assay was performed using the Life Technologies Vybrant MTT kit. […] The plate was read at 570 nm.

[13] = Huh7, PLC/PRF/5, HepG2, P7NSG59410, P31NSG55368

polyinosinic:polycytidylic acid [pI:pC, reference compound]
cytotoxicity or anti-proliferative effect ([1]; PLC/PRC/5 and Huh7): no cytotoxicity or anti-proliferative effect | cell death [1]: minimal cell death or apoptosis | cytotoxicity or anti-proliferative effect ([2]; HepG2 and THP-1): no cytotoxicity or anti-proliferative effect | cell death [2]: minimal cell death or apoptosis | cell death or apoptosis ([3]; FIGS. 3A, 3B, 5A and 5B): minimal cell death or apoptosis | cytotoxicity or anti-proliferative effect ([3]; FIGS. 3A, 3B, 5A and 5B): no cytotoxicity or anti-proliferative effect | IL-6 inducing capabilities [4]: negligible | TNFalpha inducing capabilities [4]: negligible

2O′-methyl analogue of 5 base pairs polyA:polyU
cytokine production by monocytes (THP-1 cells [5]; relative to native 5 bps pA:pU): attenuated | TNFalpha induction [6]: elevated | cell growth inhibition and death inducing properties [7, 13]: significantly attenuated | cell growth inhibition and death inducing properties ([7]; Huh7, PLC/PRF/5, HepG2, P7NSG59410, P31NSG55368, listed as 2O′-methyl analogue): less potent | cell growth inhibition and death inducing properties [8]: attenuated cytotstatic/cytotoxic profile | cell death [1]: attenuated cytotstatic/cytotoxic profile | cell death [2]: attenuated cytotstatic/cytotoxic profile

5 base pairs polyadenylic-polyuridylic acid [5 bps pA:pU]
IL-6 induction (THP-1 cells [5]; THP-1 cells): substantially induced | TNFalpha induction (THP-1 cells [5]; THP-1 cells): substantially induced | TNFalpha induction [6]: substantially induced | IL-6 induction ([6]; PLC/PRC/5 cells): substantially induced | cell growth inhibition and death inducing properties [7, 13]: cell growth inhibition and death inducing properties | cell growth inhibition and death inducing properties [8]: cell growth inhibition and death inducing properties | cell growth inhibition and death inducing properties (THP-1 cells [9]; listed as low molecular weight dsRNA (5 bps)): anti-proliferative, pro-death effect | cell growth inhibition and death inducing properties (THP-1 cells [9]; listed as polyA:polyU of 5 bps): cell growth inhibition and death inducing properties | cytotoxicity on cells emulating normal human liver cells (THLE2 cells): only a modest effect | cytotoxicity on cells emulating normal human liver cells (THLE2 cells; listed as 5 bp polyA:polyU): more refractory | cytotoxicity on cells emulating normal human liver cells (THLE2 cells; listed as low molecular weight dsRNA of 5 bps): more attenuated cytotoxicity profile | cytotoxic or anti-proliferative effect on fibroblasts [10]: cytotoxic or anti-proliferative effect | cytotoxic or anti-proliferative effect on fibroblasts ([10]; listed as 5 bp polyA:polyU): sensitive | cell death [1]: induces cell death | cell death [2]: induces cell death | TNF-alpha production [11]: blunted | biological activity in MTT assay [12]: more biologically active than 15 bps | primary mechanism of cytotoxicity [3]: cytolysis, with a minimal apoptosis component
